# What was measured:
# [1] = tested on: calcification of the cardioaorta; experiment: In vivo calcium deposition in the cardioaorta by Osteosense fluorescence; conditions: control and eNOS KO transgenic mice, FIG. 11
# Method: To determine whether the calcification of the cardioaorta decreased by the CD26 inhibitor, a CD26 inhibitor drug, DPPIV inhibitor sitagliptin, was administered to the control and the eNOS KO transgenic mice. Thereafter, the intensity of fluorescence was monitored by injecting Osteosense into the mice to check the in vivo calcium deposition. In FIG. 11, the red intensity of fluorescence represents a level of calcification.
# [2] = tested on: vascular smooth muscle cells from the eNOS KO mice; experiment: Osteogenic differentiation of vascular smooth muscle cells (ALP, AR, VK staining); type: cell-based; conditions: FIG. 10B
# Method: The aorta extracted with the heart was washed with a serum-free M199 medium (Cellgro), and cut into small pieces. Thereafter, 20% fetal calf serum, and 3 mg/mL collagenase (Sigma) were added to the M199 medium, and […] for 3 hours in a 37° C. water bath. Then, it was confirmed that the separated cells were vascular smooth muscle cells using an α-SM actin monoclonal antibody (Sigma). The separated vascular smooth muscle cells were divided at a 30% concentration, and the medium used was replaced with osteogenic medium (Osteogenic Basal Medium, Osteogenic SingleQuots, Lonza, USA) after 24 hours. The medium was replaced every 3 days, and the cell culture was performed for 28 days. The concentration of sCD26/DPP-4 was measured upon medium replacement.
# For the wild-type mice and eNOS KO mice, it was determined whether the promotion of ossification of vascular smooth muscle cells was induced by CD26 using an ALP staining method as a staining method used at the initial calcification stage, an AR staining method as a staining method used at the middle calcification stage, and a VK staining method as a staining method used at the late calcification stage.
# Also, the vascular smooth muscle cells from the eNOS KO mice were treated with CD26 and a CD26 inhibitor, diprotin A, respectively.
# [3] = tested on: CD26/DPP-4 mRNA; experiment: CD26/DPP-4 mRNA expression by RT-PCR in vascular smooth muscle cells; type: cell-based, mice; conditions: extent in proportion to the concentration of DETA-NO, FIG. 4
molecule,measurement,setting,value
N[C@@H](CC(=O)N1CCn2c(nnc2C(F)(F)F)C1)Cc1cc(F)c(F)cc1F [sitagliptin],calcification in the cardioaorta,[1],slowly proceeded
diprotin A,osteogenic differentiation,[2],inhibited
NCCN(CCN)/[N+]([O-])=N/O [DETA-NO],expression of the CD26/DPP-4 mRNA,[3],decreased

# — patent publication US20150065693A1, “COMPOSITION FOR PROPHYLAXIS OR TREATMENT OF VASCULAR OR CARDIAC VALVULAR CALCIFICATION COMPRISING DIPEPTIDYL PEPTIDASE-4 INHIBITOR” (THE ASAN FOUNDATION, priority 2013, published 2015)
